Holding throughout (type): in vivo, Sprague-Dawley rats
Test [1] relates to oxaliplatin-induced mechanical allodynia. Briefly: CIPN model (Example 5): mechanical allodynia, paw withdrawal threshold with von Frey filaments after oxaliplatin. Particulars: rat, oxaliplatin 10 mg/kg i.p.; 30 mg/kg p.o. each day of von Frey testing, tested 2 hr post dose. The procedure:
The aim of this study was to investigate the effect of a single intraplantar treatment with Nanoparticles from Example 1 (NP1B) at the dose of 11 g/L, Nanoparticles from Example 2 (NP2B) at 53 g/L, Nanoparticles from Example 3 (NP20B) at 57 g/L, and Nanoparticles from Example 4 (NP20A) at 59 g/L, each in 20 μL of injection volume, on the mechanical allodynia (as assessed using von Frey) that occurs following systemic administration of oxaliplatin in the rat.
Experimental subjects: Seventy-two (72) adult male Sprague-Dawley rats were used for this study. […]
Static mechanical (tactile) allodynia evaluation: Measurement of paw withdrawal threshold (PWT) was achieved using calibrated (force; g) von-Frey monofilaments (Touch-Test Sensory Evaluator; Scientific Marketing Associates) applied to the plantar surface of the hind paw. Withdrawal threshold was determined by increasing and decreasing stimulus intensity and estimated using Dixon's up-down method. […]
Baseline readings for latency to withdrawal (sec) were assessed on three consecutive days (Day −3, Day −2 and Day −1). […]
Mechanical allodynia was subsequently re-assessed 2-3 times per week following injection, out to D26 post-oxaliplatin. […]

The test system is the same in test [2]. Briefly: CIPN model (Example 6): dose effect, paw withdrawal threshold with von Frey filaments, left (treated) vs right (vehicle) paw. Particulars: 30 mg/kg p.o. each day of von Frey testing; on any of the test days. An excerpt:
Animals were allowed to recover from transportation for at least one week before commencing experiments.
Data is presented as mean±SEM.

Test [3] deals with STZ-induced mechanical allodynia. Briefly: STZ-induced diabetic neuropathic pain study (Example 7): paw withdrawal threshold with von Frey filaments. Particulars: 30 mg/kg p.o. 2 hr prior to each von Frey test.

The results in this text go back to patent publication US20260263374A1, “COMPOSITIONS OF NANOPARTICLES FOR TREATMENT OF NEUROPATHIC PAIN” (NANOBIOTIX S.A., priority 2022, published 2026).

SMILES strings stand for the structures.

`CC(C)C[C@H](CN)CC(=O)O` [Pregabalin]: in test [1], the “PWT, allodynic response (positive control)” value is “rescued the allodynic response and recovered the PWT to the healthy baseline levels”. The “PWT levels (both paws) compared to ‘Vehicle/Vehicle’ group (not neuropathic)” value in test [2] is “not significantly different from the ‘Vehicle/Vehicle’ group”. Moreover, the “PWT levels compared to ‘STZ/Vehicle’ group” value in test [3] was “significantly different from the ‘STZ/Vehicle’ group on all days tested”.
